# In ChEMBL document CHEMBL3714728, “Substituted benzoylamino-indan-2-carboxylic acids and related compounds” (2010):
# Target: T1, C-X-C chemokine receptor type 5 (Homo sapiens, UniProt P32302)
# T1 sequence (P32302 whole entry): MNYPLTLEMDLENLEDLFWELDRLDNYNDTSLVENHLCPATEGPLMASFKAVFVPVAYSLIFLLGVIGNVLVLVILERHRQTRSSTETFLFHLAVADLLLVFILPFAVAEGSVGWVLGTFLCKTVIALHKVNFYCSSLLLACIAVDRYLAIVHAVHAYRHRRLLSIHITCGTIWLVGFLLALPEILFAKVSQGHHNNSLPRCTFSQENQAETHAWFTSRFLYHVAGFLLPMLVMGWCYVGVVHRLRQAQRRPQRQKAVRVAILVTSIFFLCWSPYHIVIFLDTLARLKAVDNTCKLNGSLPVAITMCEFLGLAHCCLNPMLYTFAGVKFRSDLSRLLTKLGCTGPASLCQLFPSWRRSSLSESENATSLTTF
# Assay: Antagonist activity against human CXCR5 expressed in RBL cells assessed as inhibition of human CXCL13-induced intracellular Ca2+ level by fluo-4/AM dye based FLIPR assay
# Assay type: functional, cell-based
row,Structure (SMILES),IC50 [nM]
1,"Cc1cccc(C(=O)N[C@@]2(C(=O)O)Cc3ccc(F)cc3C2)c1CC(C)C (single isomer, unassigned)",7
2,Cc1cccc(C(=O)NC2(C(=O)O)Cc3ccc(C(N)=O)cc3C2)c1OC(C)C (stereo unspecified),> 30000
3,O=C(NC1(C(=O)O)Cc2ccc(C(F)(F)F)cc2C1)c1cccc2c1CCCC2 (stereo unspecified),6100
4,O=C(NC1(C(=O)O)Cc2ccc(F)cc2C1)c1cccc2c1CCCC2 (stereo unspecified),298
5,O=C(O)C1(NS(=O)(=O)c2cccc3cccnc23)Cc2ccccc2C1,> 30000
6,Cc1cccc(C(=O)NC2(C(=O)O)Cc3ccccc3C2)c1OCC1CC1,2930
7,O=C(NC1(C(=O)O)Cc2ccccc2C1)c1cccc2[nH]ccc12,> 30000
8,CC(C)=Cc1c(C(=O)NC2(C(=O)O)Cc3ccccc3C2)cccc1C(F)(F)F,26
9,COc1ccc2c(c1)CC(NC(=O)c1cccc3c1CCCC3)(C(=O)O)C2 (stereo unspecified),9500
10,C/C=C/c1c(C)cccc1C(=O)NC1(C(=O)O)Cc2ccccc2C1,232
11,Cc1cccc(C(=O)NC2(C(=O)O)Cc3ccc(C(=O)O)cc3C2)c1OC1CCC1 (stereo unspecified),> 30000
12,Cc1cc2c(cc1C)CC(NC(=O)c1cccc(C)c1OC(C)C)(C(=O)O)C2,27000
13,O=C(NC1(C(=O)O)Cc2ccccc2C1)c1cnc2ccccc2n1,> 30000
14,Cc1cccc(C(=O)NC2(C(=O)O)Cc3ccc(F)cc3C2)c1C1=CCCC1 (stereo unspecified),13
15,CCC(C)Oc1c(C)cccc1C(=O)NC1(C(=O)O)Cc2ccccc2C1 (stereo unspecified),1080
16,Cc1cccc(C(=O)NC2(C(=O)O)Cc3c(C)sc(C)c3C2)c1OC(C)C,17400
17,CC(C)=Cc1c(C)cccc1C(=O)NC1(C(=O)O)Cc2ccccc2C1,33
18,Cc1cccc(C(=O)N(C)C2(C(=O)O)Cc3ccccc3C2)c1OC(C)C,> 30000
19,O=C(NC1(C(=O)O)Cc2ccccc2C1)c1cccc2ccccc12,5450
20,CCOc1ccc2ccccc2c1C(=O)NC1(C(=O)O)Cc2ccccc2C1,19600
21,O=C(NC1(C(=O)O)Cc2ccccc2C1)c1cncc2ccccc12,> 30000
22,Cc1cccc(C(=O)NC2(C(=O)O)Cc3ccccc3C2)c1C1=CCCC1,56
23,C=CCOc1c(Cl)cccc1C(=O)NC1(C(=O)O)Cc2ccccc2C1,3650
24,O=C(NC1(C(=O)O)Cc2ccccc2C1)c1cccc2cccnc12,> 30000

row,Structure (SMILES),IC50 [nM]
1,O=C(NC1(C(=O)O)Cc2ccccc2C1)c1cccc2cc[nH]c12,> 30000
2,CCC/C=C\c1c(C)cccc1C(=O)NC1(C(=O)O)Cc2ccccc2C1,99
3,Cc1cccc(C(=O)NC2(C(=O)O)Cc3ccc(C#N)cc3C2)c1OC(C)C (stereo unspecified),20500
4,O=C(NC1(C(=O)O)Cc2ccccc2C1)c1cc(F)cc2c1OCOC2,30000
5,Cc1cccc(C(=O)NC2(C(=O)O)CCSCC2)c1OC(C)C,24000
6,CCCCCc1c(C)cccc1C(=O)NC1(C(=O)O)Cc2ccccc2C1,2300
7,"Cc1cccc(C(=O)N[C@]2(C(=O)O)Cc3ccc(F)cc3C2)c1CC(C)C (single isomer, unassigned)",30
8,Cc1cccc(C(=O)NC2(C(=O)O)Cc3ccccc3C2)c1C1CCCC1,533
9,Cc1cccc(C(=O)NC2(C(=O)O)Cc3ccc(F)cc3C2)c1OC(C)C (stereo unspecified),537
10,Cc1cccc(C(=O)NC2(C(=O)O)Cc3ccc(C(N)=O)cc3C2)c1OC1CCC1 (stereo unspecified),> 30000
11,Cc1sc(C)c2c1CC(NC(=O)c1cccc3c1CCCC3)(C(=O)O)C2,2850
12,Cc1cccc(C(=O)NC2(C(=O)O)Cc3ccc(C(F)(F)F)cc3C2)c1OC1CCC1 (stereo unspecified),7800
13,Cc1cccc(C(=O)NC2(C(=O)O)Cc3ccccc3C2)c1CCC1CC1,97
14,C=CCOc1c(Cl)cc(Cl)cc1S(=O)(=O)NC1(C(=O)O)Cc2ccccc2C1,13000
15,CCC/C=C/c1c(C)cccc1C(=O)NC1(C(=O)O)Cc2ccccc2C1,446
16,COc1ccc2c(c1)CC(NC(=O)c1cccc(C)c1OC(C)C)(C(=O)O)C2 (stereo unspecified),18200
17,CC(C)=Cc1c(C)cccc1C(=O)NC1(C(=O)O)Cc2c(F)ccc(F)c2C1,38
18,Cc1cccc(C(=O)NC2(C(=O)O)Cc3cc(F)c(F)cc3C2)c1CC(C)C,17
19,C/C=C/c1c(C)cccc1C(=O)NC1(C(=O)O)Cc2ccc(F)cc2C1 (stereo unspecified),200
20,Cc1cccc(C(=O)NC2(C(=O)O)Cc3ccc(F)cc3C2)c1CC(C)C (stereo unspecified),15
21,Cc1cccc(C(=O)NC2(C(=O)O)Cc3ccccc3C2)c1/C=C/C1CC1,8200
22,O=C(NC1(C(=O)O)Cc2ccccc2C1)c1ccc(F)c2ccccc12,13000
23,O=C(NC1(C(=O)O)Cc2ccccc2C1)c1cccc2c1NCCC2,> 30000
24,CC(C)=Cc1c(C)cccc1C(=O)NC1(C(=O)O)Cc2ccc(F)c(F)c2C1 (stereo unspecified),5

row,Structure (SMILES),IC50 [nM]
1,Cc1cccc(C(=O)NC2(C(=O)O)Cc3ccccc3C2)c1OC1CCC1,470
2,CCCc1c(C)cccc1C(=O)NC1(C(=O)O)Cc2cc(F)c(F)cc2C1,45
3,N#Cc1ccc2c(c1)CC(NC(=O)c1cccc3c1CCCC3)(C(=O)O)C2 (stereo unspecified),30000
4,Cc1cccc(C(=O)NC2(C(=O)O)Cc3ccccc3C2)c1C1=CCCCC1,1050
5,CCCC(CC)c1c(C)cccc1C(=O)NC1(C(=O)O)Cc2ccccc2C1 (stereo unspecified),3870
6,Cc1cccc(C(=O)NC2(C(=O)O)Cc3ccc(C(=O)O)cc3C2)c1OC(C)C (stereo unspecified),> 30000
7,CC/C=C(/CC)c1c(C)cccc1C(=O)NC1(C(=O)O)Cc2ccccc2C1,15200
8,O=C(NC1(C(=O)O)Cc2ccccc2C1)c1cccc2c1CCCC2,675
9,CC(C)=Cc1c(C)cccc1C(=O)NC1(C(=O)O)Cc2ccc(Cl)cc2C1 (stereo unspecified),9
10,Cc1cccc(C(=O)NC2(C(=O)O)Cc3ccc(F)cc3C2)c1OC1CCC1 (stereo unspecified),380
11,CCCc1c(C)cccc1C(=O)NC1(C(=O)O)Cc2ccc(F)cc2C1 (stereo unspecified),47
12,CCCC#Cc1c(C)cccc1C(=O)NC1(C(=O)O)Cc2ccccc2C1,19300
13,NC(=O)c1ccc2c(c1)CC(NC(=O)c1cccc3c1CCCC3)(C(=O)O)C2 (stereo unspecified),> 30000
14,CC(C)=Cc1c(C)cccc1C(=O)NC1(C(=O)O)Cc2cc(F)c(F)cc2C1,15
15,O=C(NC1(C(=O)O)Cc2ccccc2C1)c1cccc2c1OCCO2,> 30000
16,Cc1cccc(C(=O)NC2(C(=O)O)Cc3ccccc3C2)c1CC(C)C,14
17,CCCc1c(C)cccc1C(=O)NC1(C(=O)O)Cc2ccccc2C1,23
18,O=C(NC1(C(=O)O)Cc2ccc(F)cc2C1)c1cc(Cl)cc(Cl)c1OC1CCC1 (stereo unspecified),268
19,CC(C)Oc1c(Cl)cc(Cl)cc1S(=O)(=O)NC1(C(=O)O)Cc2ccccc2C1,16000
20,Cc1cccc(C(=O)NC2(C(=O)O)Cc3ccc(C(F)(F)F)cc3C2)c1OC(C)C (stereo unspecified),14800
21,O=C(O)c1ccc2c(c1)CC(NC(=O)c1cccc3c1CCCC3)(C(=O)O)C2 (stereo unspecified),> 30000
22,Cc1cccc(C(=O)NC2(C(=O)O)Cc3ccc(C#N)cc3C2)c1OC1CCC1 (stereo unspecified),10100
23,CC(C)=Cc1c(C)cccc1C(=O)NC1(C(=O)O)Cc2ccc(F)cc2C1 (stereo unspecified),11
